From patent US7608716B2, “Pyrazolonaphthyridine derivative” (Aska Pharmaceutical Co., Ltd., priority 2002, dated 2009)

Key:
[1] = tested on: Beagle dogs; assay: Emetic action on dogs; assay type: in vivo; conditions: oral, 1 mg/kg
Method: Beagle dogs received a suspension of each test compound in 0.5% CMC-Na solution orally at a dose of 1 mg/2 mL/kg.

[2] = target: T1, CYP3A4 (Homo sapiens, UniProt P08684); assay: Inhibition of drug-metabolizing enzyme CYP3A4 (CYP3A4/BFC kit); assay type: in vitro ADME; conditions: CYP3A4-expressing microsomes, BFC substrate, 37° C., 30 minutes; read-out: Inhibition of Drug-Metabolizing Enzymes (IC50; μM) CYP3A4
T1 construct: purchased BD Biosciences, NJ, USA; host or cells: CYP3A4-expressing system microsomes
T1 sequence (P08684 whole entry): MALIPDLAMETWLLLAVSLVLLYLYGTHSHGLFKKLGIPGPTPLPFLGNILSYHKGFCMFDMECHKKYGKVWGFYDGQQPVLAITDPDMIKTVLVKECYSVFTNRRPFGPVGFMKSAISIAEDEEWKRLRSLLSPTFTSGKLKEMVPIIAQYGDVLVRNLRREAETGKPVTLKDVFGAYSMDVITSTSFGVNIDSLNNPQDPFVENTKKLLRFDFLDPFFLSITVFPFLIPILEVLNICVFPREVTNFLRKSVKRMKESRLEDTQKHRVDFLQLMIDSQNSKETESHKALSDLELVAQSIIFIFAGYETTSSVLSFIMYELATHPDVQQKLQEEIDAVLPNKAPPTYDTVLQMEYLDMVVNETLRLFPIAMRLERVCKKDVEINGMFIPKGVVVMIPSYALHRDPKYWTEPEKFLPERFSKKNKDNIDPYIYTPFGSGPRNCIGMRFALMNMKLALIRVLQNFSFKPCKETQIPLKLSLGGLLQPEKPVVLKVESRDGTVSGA
Method: (§1) The inhibitory effect on CYP2D6 and CYP3A4 was determined using High Throughput Inhibitor Screening Kits: CYP2D6/AMMC and CYP3A4/BFC (both from BD Biosciences, NJ, USA). Briefly, each of NADPH regenerating systems, cofactors, and test compounds was dispensed into 96-well plates, followed by addition of each of fluorescent substrates, AMMC (CYP2D6) or BFC (CYP3A4). To each well were added CYP2D6-expressing system microsomes or CYP3A4-expressing system microsomes, and the plates were incubated at 37° C. for 30 minutes, and then read for fluorescent signals (CYP2D6: ex=390 nm, em=460 nm; CYP3A4: ex=409 nm, em=538 nm wherein excitation wavelength: ex and emission wavelength: em). Thus, each inhibitory efficacy on enzymes CYP2D6 and CYP3A4 was determined. Roflumilast was used for the reference compound in this assay.

[3] = tested on: TNF-α production; assay: Inhibition of TNF-α production in galactosamine- and LPS-stimulation; assay type: in vivo; conditions: Mus musculus; C3H/HeN mice, oral, 1 hour before galactosamine/LPS i.v.; serum TNF-α by ELISA 1 hour later; read-out: Inhibition of TNF-α production ED50: mg/kg orally
Method: A suspension of each test compound in 0.5% CMC-Na solution was administered orally to C3H/HeN mice at a dose of 0.10 to 10 mg/kg. One hour later, the animals received intravenously galactosamine at a dose of 800 mg/kg and LPS at a dose 5 μg/kg to raise the induction of TNF-α production. One hour later after the galactosamine- and LPS-administration, amounts of TNF-α in serum samples were measured by ELISA, and ED50 was obtained. Roflumilast and SB207499 were used for the reference compounds in this assay.

[4] = tested on: actively sensitized guinea pigs; assay: Inhibition of antigen-induced immediate asthmatic response (airway resistance, Konzett-Rossler); assay type: in vivo, Hartley guinea pigs; conditions: Cavia porcellus, oral, 60 minutes prior to antigen-challenge, reduction of increase in airway resistance, read-out: Inhibition of Asthmatic response ED50: mg/kg orally
Method: Male Hartley outbred guinea pigs were sensitized by administering intraperitoneally physiological saline (0.5 ml) containing ovalbumin (1 mg, antigen) and 5×10^9 inactivated Bordetella pertussis dead cells (adjuvant). Eleven to thirteen days after the first sensitization, 0.05 ml of an ovalbumin solution (1 mg/ml) (ovalbumin is dissolved in physiological saline) was administered to the lateroabdominal region of each guinea pig intracutaneously. An establishment of sensitization was checked relying on cutaneous reaction. Only guinea pigs wherein significant reddening responses occurred 5 to 10 minutes later were employed in the next measurement test for airway resistance.
The guinea pigs (3 animals per group) actively sensitized in the above step (1) were employed to measure for their airway pressure according to Konzett-Rossler method (Arch. Exp. Path. Pharmakol., 195, 71 (1940)).
Thirteen days after the final sensitization, guinea pigs fasted overnight, and were on the next day anesthetized with a pentobarbital solution (30 mg/1.2 ml/kg, dissolved in physiological saline, intraperitoneal administration). After the guinea pigs were fixed in a supine position, their trachea was incised followed by insertion with one port of a 4-port cannula. Among the remaining 3 ports, 2 ports were connected to an artificial respirator (Model 683, Harvard). The animals were ventilated with 10 ml/kg of air per ventilation at a rate of 60 beats/min via the artificial respirator from the cannula. One port remainder was connected to a respiratory amplifier (AR-601G, Nihon Kohden, Japan) via an airflow resistance tube (TV-241T, Nihon Kohden, Japan) and a differential pressure transducer (TP-602T, Nihon Kohden, Japan) connected with a control box (RY-111S, Nihon Kohden, Japan). From a catheter inserted into a left carotid artery, blood pressures were monitored with a blood pressure measurement unit (AP641G, NEC Corp., Japan) via a blood pressure transducer (TP-300T, Nihon Kohden, Japan), and heart rates were recorded on a thermal recorder (WT-685G, Nihon Kohden, Japan), relying on blood pressure pulse waves after being led to a cardiograph unit (AT601G, Nihon Kohden, Japan).
After airway pressure became stable, an ovalbumin solution (1 mg/ml, dissolved in physiological saline) was administered at a dose of 1 ml/kg via a tube with which the right jugular vein of guinea pigs was cannulated.
Each test compound was suspended in 0.5% CMC-Na solution and administered orally with an oral sound at a dose of 0.03 to 20 mg/2 ml/kg 60 minutes prior to the antigen-challenge. Control groups received only 0.5% CMC-Na solution in an equivalent amount. The pentobarbital-anesthetization and tracheal incision were conducted 30 minutes prior to the antigen-challenge.
Each percent reduction of increase in airway resistance (each test compound-administered group versus control group) was calculated according to the equation given below. ED50 was obtained by Probit method.

[5] = tested on: lung eosinophil infiltration; assay: Inhibition of lung eosinophil infiltration (OVA-sensitized, BALF); assay type: in vivo, Hartley guinea-pigs; conditions: Cavia porcellus, guinea-pigs, oral, 1 hour before OVA inhalation, BALF eosinophils at 24 hours, read-out: Inhibition of Lung Eosinophil Infiltration ED50: mg/kg orally
Method: Hartley guinea-pigs were sensitized by inhaling twice 1% ovalbumin (OVA) in a physiological saline for 10 minutes with a nebulizer (Atom Medical Corporation, Japan) at an interval of 1 week. The animals were orally given a suspension of test compounds at a dose of 0.03 to 3 mg/2 mL/kg one week after the final sensitization. One hour later, the animals were exposed to antigens by inhalation of 2% OVA in a physiological saline for 5 minutes with a nebulizer. Thirty minutes before the antigen challenge, the animals were intraperitoneally pretreated with pyrilamine at a dose of 10 mg/kg to avoid fatality due to anaphylactic shock. Bronchoalveolar lavage fluid (BALF) samples were collected 24 hours after the exposure by inhalation of antigens, and eosinophils were counted.

[6] = target: T2, CYP2D6 (Homo sapiens, UniProt P10635); assay: Inhibition of drug-metabolizing enzyme CYP2D6 (CYP2D6/AMMC kit); assay type: in vitro ADME; conditions: CYP2D6-expressing microsomes, AMMC substrate, 37° C., 30 minutes; read-out: Inhibition of Drug-Metabolizing Enzymes (IC50; μM) CYP2D6
T2 construct: purchased BD Biosciences, NJ, USA; host or cells: CYP2D6-expressing system microsomes
T2 sequence (P10635 whole entry): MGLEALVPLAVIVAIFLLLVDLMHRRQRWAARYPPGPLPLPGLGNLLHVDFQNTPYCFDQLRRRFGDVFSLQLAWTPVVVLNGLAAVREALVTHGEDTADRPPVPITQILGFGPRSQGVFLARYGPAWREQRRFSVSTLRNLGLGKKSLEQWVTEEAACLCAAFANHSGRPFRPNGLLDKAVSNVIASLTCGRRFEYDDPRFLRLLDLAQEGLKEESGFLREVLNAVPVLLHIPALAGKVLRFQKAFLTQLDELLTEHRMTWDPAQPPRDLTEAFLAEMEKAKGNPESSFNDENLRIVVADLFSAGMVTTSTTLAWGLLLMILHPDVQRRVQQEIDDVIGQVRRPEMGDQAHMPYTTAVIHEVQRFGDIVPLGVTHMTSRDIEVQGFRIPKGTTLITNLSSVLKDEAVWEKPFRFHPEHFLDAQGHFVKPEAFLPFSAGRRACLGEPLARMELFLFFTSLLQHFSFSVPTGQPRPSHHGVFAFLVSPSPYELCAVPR
Method: as §1

[7] = tested on: lung neutrophil infiltration; assay: Inhibition of lung neutrophil infiltration (LPS inhalation, BALF); assay type: in vivo, Hartley guinea-pigs; conditions: Cavia porcellus, guinea-pigs, oral, 1 hour before LPS inhalation, BALF neutrophils at 24 hours, read-out: Inhibition of Lung Neutrophil Infiltration ED50: mg/kg orally
Method: Hartley guinea-pigs were orally received a suspension of test compounds at a dose of 0.03 to 3 mg/2 mL/kg. One hour later, the animals were received 0.1 mg/mL lipopolylsaccharide (LPS) in a physiological saline via an inhalational route with a nebulizer for 30 minutes. Twenty-four hours after the LPS inhalation, BALF samples were collected, and neutrophils were counted.

With `O=C(Nc1c(Cl)cncc1Cl)c1ccc(OC(F)F)c(OCC2CC2)c1` [Roflumilast, 3-(cyclopropylmethoxy)-N-(3,5-dichloro-4-pyridyl)-4-(difluoromethoxy)benzamide, reference compound] the Occurrence of emesis [1] was 2 animals among 3 were afflicted with emetic reactions, the IC50 [2] was 0.98 µM and the ED50 [3] was 0.26 mg/kg. It also gave an ED50 [4] of 0.66 mg/kg, an ED50 [5] of 0.36 mg/kg and an IC50 [6] of 9.1 µM. For the same compound, the ED50 [7] was 0.98 mg/kg.
